Source: patent publication US10072001B2, “Tank-binding kinase inhibitor compounds” (Gilead Sciences, Inc., priority 2014, dated 2018)

Key:
[1] = molecular target: IKKε (Homo sapiens (Human), UniProt Q14164); assay: TR-FRET kinase assay, IKKε; type: biochemical; conditions: full length recombinant IKKε 0.3 nM, 2x Km ATP, 1 μM peptide, 240 min at 25° C.; geometric mean of minimum four determinations
Source text: Biological Assay for TBK1 and IKKs:

[2] = molecular target: TBK1 (Homo sapiens (Human), UniProt Q9UHD2); assay: TR-FRET kinase assay, TBK1; conditions: read-out: TBK1-IC50; full length recombinant TBK1 2.5 nM, 2x Km ATP, 1 μM peptide, 240 min at 25° C.; geometric mean of minimum four determinations
Chain of TBK1 (Q9UHD2 whole entry): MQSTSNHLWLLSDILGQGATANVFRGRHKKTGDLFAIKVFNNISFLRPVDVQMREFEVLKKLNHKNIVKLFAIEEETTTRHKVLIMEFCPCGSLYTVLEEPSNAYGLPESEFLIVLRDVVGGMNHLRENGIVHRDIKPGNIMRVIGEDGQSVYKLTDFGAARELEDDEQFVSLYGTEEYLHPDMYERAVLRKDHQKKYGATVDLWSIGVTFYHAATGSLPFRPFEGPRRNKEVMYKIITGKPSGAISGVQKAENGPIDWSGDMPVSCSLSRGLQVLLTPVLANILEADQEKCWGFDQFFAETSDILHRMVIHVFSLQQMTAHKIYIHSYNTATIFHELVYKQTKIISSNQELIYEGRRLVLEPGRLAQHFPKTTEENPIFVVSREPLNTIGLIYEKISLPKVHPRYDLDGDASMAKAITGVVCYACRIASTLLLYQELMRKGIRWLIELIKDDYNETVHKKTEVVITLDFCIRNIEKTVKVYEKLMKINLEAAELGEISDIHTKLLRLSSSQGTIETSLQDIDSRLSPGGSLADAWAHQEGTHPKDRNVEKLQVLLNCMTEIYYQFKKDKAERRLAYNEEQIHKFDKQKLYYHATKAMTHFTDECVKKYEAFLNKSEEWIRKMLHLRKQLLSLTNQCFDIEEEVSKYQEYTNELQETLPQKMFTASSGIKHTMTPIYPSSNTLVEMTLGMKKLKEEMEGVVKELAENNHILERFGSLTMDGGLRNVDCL
Method: Enzymatic activity of IKKε and TBK1 was measured using a homogeneous time resolved fluorescence resonance energy transfer (TR-FRET) assay that monitors enzyme dependent phosphorylation of a biotinylated serine/threonine peptide substrate. […] TBK1 and IKKs were expressed and purified as full length recombinant proteins. Detection reagents for the assay were purchased from Cisbio. […] After an assay reaction time of 240 minutes at 25° C., reactions were terminated with EDTA.
Amount of phosphorylated peptide was determined by the addition of 125 nM streptavidin XL665 and europium cryptate labeled anti-phospho monoclonal antibody and the resulting TR-FRET signal was recorded on an Envision plate reader (Ex: 340 nm; Em: 615/665 nm; 100 μs delay and 200 μs read window). […] All IC50 values represent geometric mean values of a minimum of four determinations.

Chain of IKKε (Q14164 whole entry): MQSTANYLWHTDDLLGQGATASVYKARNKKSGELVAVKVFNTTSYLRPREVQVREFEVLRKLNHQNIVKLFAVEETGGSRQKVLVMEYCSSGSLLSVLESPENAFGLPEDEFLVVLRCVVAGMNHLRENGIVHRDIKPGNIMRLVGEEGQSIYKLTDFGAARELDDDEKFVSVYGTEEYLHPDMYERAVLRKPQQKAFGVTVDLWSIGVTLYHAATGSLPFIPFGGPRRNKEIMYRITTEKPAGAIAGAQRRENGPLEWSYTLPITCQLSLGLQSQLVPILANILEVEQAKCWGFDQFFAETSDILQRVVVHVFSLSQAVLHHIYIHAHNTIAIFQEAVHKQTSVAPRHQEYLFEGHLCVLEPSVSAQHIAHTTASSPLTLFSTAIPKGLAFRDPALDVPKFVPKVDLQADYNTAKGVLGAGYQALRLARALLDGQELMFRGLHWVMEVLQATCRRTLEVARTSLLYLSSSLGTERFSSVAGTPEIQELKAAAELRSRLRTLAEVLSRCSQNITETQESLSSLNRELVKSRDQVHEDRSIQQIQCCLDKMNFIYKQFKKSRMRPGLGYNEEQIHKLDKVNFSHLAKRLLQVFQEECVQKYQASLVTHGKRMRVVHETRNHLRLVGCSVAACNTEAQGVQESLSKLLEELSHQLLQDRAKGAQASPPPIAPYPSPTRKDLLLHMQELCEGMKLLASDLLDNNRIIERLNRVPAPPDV

Row | IC50 [1] | IC50 [2] | SMILES
1 | 0.687 nM | 0.763 nM | COc1cc(-c2cc3c(-c4ccc(OC5CCN(C(=O)CO)CC5(F)F)c(C#N)c4)ncnc3[nH]2)ccc1N1CCN(C2COC2)CC1 (stereo not drawn) [Example 141, 2-((3,3-difluoro-1-(2-hydroxyacetyl)piperidin-4-yl)oxy)-5-(6-(3-methoxy-4-(4-(oxetan-3-yl)piperazin-1-yl)phenyl)-7H-pyrrolo[2,3-d]pyrimidin-4-yl)benzonitrile]
2 | 59.2 nM | 19.1 nM | N#Cc1cc(-c2ccnc3[nH]c(-c4ccc(N5CCOCC5)cc4)cc23)ccc1O[C@@H]1CCN(CC(F)F)C1 [Example 31, (R)-2-((1-(2,2-difluoroethyl)pyrrolidin-3-yl)oxy)-5-(2-(4-morpholinophenyl)-1H-pyrrolo[2,3-b]pyridin-4-yl)benzonitrile]
3 | 109 nM | 29.1 nM | N#Cc1cc(-c2ccnc3[nH]c(-c4ccc(N5CCOCC5)cc4)nc23)ccc1OC1CCNCC1 [Example 197, 5-(2-(4-morpholinophenyl)-3H-imidazo[4,5-b]pyridin-7-yl)-2-(piperidin-4-yloxy)benzonitrile]
4 | 1000 nM | 1000 nM | CN(C)Cc1ccc(-c2nc3c(-c4ccc(OC5CCN(C(=O)C(F)F)CC5)c(C#N)c4)ncnc3[nH]2)cc1 [Example 267, 2-((1-(2,2-difluoroacetyl)piperidin-4-yl)oxy)-5-(8-(4-((dimethylamino)methyl)phenyl)-9H-purin-6-yl)benzonitrile]
5 | 41 nM | 14.1 nM | CC1(COc2ccc(-c3ccnc4[nH]c(-c5ccc(N6CCOCC6)cc5)cc34)cc2C#N)COC1 [Example 12, 2-((3-methyloxetan-3-yl)methoxy)-5-(2-(4-morpholinophenyl)-1H-pyrrolo[2,3-b]pyridin-4-yl)benzonitrile]
6 | 15.7 nM | 13.7 nM | N#Cc1cc(-c2ncnc3[nH]c(-c4ccc(CC(=O)O)cc4)cc23)ccc1OC1CCOCC1 [Example 168, 2-(4-(4-(3-Cyano-4-((tetrahydro-2H-pyran-4-yl)oxy)phenyl)-7H-pyrrolo[2,3-d]pyrimidin-6-yl)phenyl)acetic acid]
7 | 1.74 nM | 1.22 nM | N#Cc1cc(-c2ccnc3[nH]c(-c4cnn(C5CCNCC5)c4)cc23)ccc1OC1CCOCC1 [Example 10, 5-(2-(1-(piperidin-4-yl)-1H-pyrazol-4-yl)-1H-pyrrolo[2,3-b]pyridin-4-yl)-2-((tetrahydro-2H-pyran-4-yl)oxy)benzonitrile]
8 | 9.51 nM | 5.53 nM | N#Cc1cc(-c2ccnc3[nH]c(-c4ccc(N)nc4)cc23)ccc1OC1CCOCC1 [Example 11, 5-(2-(6-aminopyridin-3-yl)-1H-pyrrolo[2,3-b]pyridin-4-yl)-2-((tetrahydro-2H-pyran-4-yl)oxy)benzonitrile]
9 | 8.06 nM | 1.72 nM | N#Cc1cc(-c2ncnc3[nH]c(-c4ccc(N5CCOCC5)cc4)cc23)ccc1OC1CCOCC1 [Example 101, 5-(6-(4-morpholinophenyl)-7H-pyrrolo[2,3-d]pyrimidin-4-yl)-2-((tetrahydro-2H-pyran-4-yl)oxy)benzonitrile]
10 | 1.8 nM | 1.24 nM | N#Cc1cc(-c2ncnc3[nH]c(-c4ccc(OCCN5CCCC5)cc4)cc23)ccc1OC1CCOCC1 [Example 226, 5-(6-(4-(2-(pyrrolidin-1-yl)ethoxy)phenyl)-7H-pyrrolo[2,3-d]pyrimidin-4-yl)-2-((tetrahydro-2H-pyran-4-yl)oxy)benzonitrile]
11 | 1000 nM | 275 nM | CS(=O)(=O)c1ccc(-c2ccnc3[nH]c(-c4ccc(N5CCOCC5)cc4)cc23)cc1C#N [Example 192, 2-(methylsulfonyl)-5-(2-(4-morpholinophenyl)-1H-pyrrolo[2,3-b]pyridin-4-yl)benzonitrile]
12 | 3.5 nM | 1.31 nM | N#Cc1cc(-c2ccnc3[nH]c(-c4ccc(N5CCN(C6COC6)CC5)cc4)cc23)ccc1OC1CCOCC1 [Example 85, 5-(2-(4-(4-(oxetan-3-yl)piperazin-1-yl)phenyl)-1H-pyrrolo[2,3-b]pyridin-4-yl)-2-((tetrahydro-2H-pyran-4-yl)oxy)benzonitrile]
13 | 1.79 nM | 2.4 nM | CC1CN(c2ccc(-c3nc4c(-c5ccc(OC6CCN(C(=O)CO)CC6)c(C#N)c5)ncnc4[nH]3)cc2)CCN1CCF (stereo not drawn) [Example 256, 5-(8-(4-(4-(2-fluoroethyl)-3-methylpiperazin-1-yl)phenyl)-9H-purin-6-yl)-2-((1-(2-hydroxyacetyl)piperidin-4-yl)oxy)benzonitrile]
14 | 1000 nM | 11.6 nM | N#Cc1cc(-c2ncnc3[nH]c(-c4ccc(N5CCOCC5)nc4)nc23)ccc1OC1CCOCC1 [Example 243, 5-(8-(6-morpholinopyridin-3-yl)-9H-purin-6-yl)-2-((tetrahydro-2H-pyran-4-yl)oxy)benzonitrile]
15 | > 1000 nM | 43.5 nM | N#Cc1cc(-c2ccnc3[nH]c(-c4ccc(N5CCOCC5)cc4)nc23)ccc1OCC1CC1 [Example 301, 2-(cyclopropylmethoxy)-5-(2-(4-morpholinophenyl)-3H-imidazo[4,5-b]pyridin-7-yl)benzonitrile]
16 | 4.22 nM | 2.08 nM | N#Cc1cc(-c2ncnc3[nH]c(-c4ccc(N5CCOCC5)cc4)nc23)ccc1OC1CCN(S(N)(=O)=O)CC1 [Example 262, 4-(2-cyano-4-(8-(4-morpholinophenyl)-9H-purin-6-yl)phenoxy)piperidine-1-sulfonamide]
17 | 14.3 nM | 2.78 nM | N#Cc1cc(-c2ncnc3[nH]c(-c4ccc(N5CCOCC5)c(F)c4)cc23)ccc1OC1CCOCC1 [Example 156, 5-(6-(3-fluoro-4-morpholinophenyl)-7H-pyrrolo[2,3-d]pyrimidin-4-yl)-2-((tetrahydro-2H-pyran-4-yl)oxy)benzonitrile]
18 | 38 nM | 10.9 nM | N#Cc1cc(-c2ccnc3[nH]c(-c4ccc(N5CCOCC5)c(F)c4)cc23)ccc1OC1CCOCC1 [Example 77, 5-(2-(3-fluoro-4-morpholinophenyl)-1H-pyrrolo[2,3-b]pyridin-4-yl)-2-((tetrahydro-2H-pyran-4-yl)oxy)benzonitrile]
19 | 7.58 nM | 1.68 nM | N#Cc1cc(-c2ncnc3[nH]c(-c4ccc(N5CCOCC5)cc4)nc23)ccc1O[C@@H]1CCN(C(=O)CO)C1 [Example 208, (R)-2-((1-(2-hydroxyacetyl)pyrrolidin-3-yl)oxy)-5-(8-(4-morpholinophenyl)-9H-purin-6-yl)benzonitrile]
20 | > 1000 nM | 28.2 nM | N#Cc1cccc(-c2ccnc3[nH]c(-c4ccc(N5CCOCC5)cc4)cc23)c1 [Example 79, 3-(2-(4-morpholinophenyl)-1H-pyrrolo[2,3-b]pyridin-4-yl)benzonitrile]
21 | 11.7 nM | 2.26 nM | N#CCC(=O)N1CC[C@@H](Oc2ccc(-c3ncnc4[nH]c(-c5ccc(N6CCOCC6)cc5)cc34)cc2C#N)C1 [Example 107, (R)-2-((1-(2-cyanoacetyl)pyrrolidin-3-yl)oxy)-5-(6-(4-morpholinophenyl)-7H-pyrrolo[2,3-d]pyrimidin-4-yl)benzonitrile]
22 | 1.43 nM | 0.849 nM | N#Cc1cc(-c2ncnc3[nH]c(-c4ccc(N5CCN(C6COC6)CC5)cc4)cc23)ccc1OC1CCN(C(=O)CO)CC1 [Example 157, 2-((1-(2-hydroxyacetyl)piperidin-4-yl)oxy)-5-(6-(4-(4-(oxetan-3-yl)piperazin-1-yl)phenyl)-7H-pyrrolo[2,3-d]pyrimidin-4-yl)benzonitrile]
23 | 321 nM | 56.8 nM | N#CCC(=O)N1CC[C@H](Oc2ccc(-c3ccnc4[nH]c(-c5ccc(N6CCOCC6)cc5)cc34)cc2C#N)C1 [Example 24, (S)-2-((1-(2-cyanoacetyl)pyrrolidin-3-yl)oxy)-5-(2-(4-morpholinophenyl)-1H-pyrrolo[2,3-b]pyridin-4-yl)benzonitrile]
24 | 10.6 nM | 6.4 nM | N#Cc1cc(-c2ncnc3[nH]c(-c4cccc(C(N)=O)c4)cc23)ccc1OC1CCOCC1 [Example 171, 3-(4-(3-cyano-4-((tetrahydro-2H-pyran-4-yl)oxy)phenyl)-7H-pyrrolo[2,3-d]pyrimidin-6-yl)benzamide]
25 | 45.5 nM | 12.2 nM | N#Cc1cc(-c2ncnc3[nH]c(-c4ccc(C5CCN(CC(F)(F)F)CC5)cc4)nc23)ccc1OC1CCN(C=O)CC1 [Example 259, 2-((1-formylpiperidin-4-yl)oxy)-5-(8-(4-(1-(2,2,2-trifluoroethyl)piperidin-4-yl)phenyl)-9H-purin-6-yl)benzonitrile]
26 | 15.5 nM | 3.33 nM | N#Cc1cc(-c2ccnc3[nH]c(-c4ccc(N5CCOCC5)cc4)cc23)ccc1N1CC(O)C1 [Example 193, 2-(3-hydroxyazetidin-1-yl)-5-(2-(4-morpholinophenyl)-1H-pyrrolo[2,3-b]pyridin-4-yl)benzonitrile]
27 | 13.8 nM | 3.89 nM | N#Cc1nc(-c2ccnc3[nH]c(-c4ccc(N5CCOCC5)cc4)cc23)ccc1OC1CCOCC1 [Example 86, 6-(2-(4-morpholinophenyl)-1H-pyrrolo[2,3-b]pyridin-4-yl)-3-((tetrahydro-2H-pyran-4-yl)oxy)picolinonitrile]
28 | 2.64 nM | 1.3 nM | N#Cc1cc(-c2ncnc3[nH]c(-c4ccc(N5CCOCC5)c(F)c4)nc23)ccc1OC1CCN(C(=O)CO)CC1 [Example 241, 5-(8-(3-fluoro-4-morpholinophenyl)-9H-purin-6-yl)-2-((1-(2-hydroxyacetyl)piperidin-4-yl)oxy)benzonitrile]

Row | SMILES | IC50 [1] | IC50 [2]
29 | N#Cc1cc(-c2ncnc3[nH]c(-c4ccc(N5CCOCC5)cc4)nc23)ccc1OC1CCNCC1 [Example 204, 5-(8-(4-morpholinophenyl)-9H-purin-6-yl)-2-(piperidin-4-yloxy)benzonitrile] | 83.7 nM | 36.8 nM
30 | CN1CCN(c2ccc(-c3nc4c(-c5ccc(OC6CCOCC6)c(C#N)c5)ncnc4[nH]3)cc2)CC1 [Example 212, 5-(8-(4-(4-methylpiperazin-1-yl)phenyl)-9H-purin-6-yl)-2-((tetrahydro-2H-pyran-4-yl)oxy)benzonitrile] | 1.08 nM | 1.14 nM
